Test results: patent US4339442A, “Gynosaponins, their use and a process for preparing the same” (priority 1980, dated 1982)

How the values were obtained:
Format in all cases: cell-based, male wister rats
fat cells [1] = assay: Synthesis of fat from glucose in fat cells; settings: 20 μg/ml; for Power for synthesis of neutral fat from glucose: 37° C., half an hour; for activation at 20 µg/mL: Rattus norvegicus, 0.5 h, read-out: Rate of promotion; for activation at 20 µg/mL / Rate of promotion: none = 100
Procedure: (§1) Fat tissues were separated from the epididymides of male wister rats weighing 150 to 180 g each, and fat cells were obtained therefrom in accordance with the Rodbell's method [M. Rodbell, J. Biol. Chem., 239, 375 (1964)]. A small section was prepared from 4 g of the fat tissue, and placed in 10 ml. of Krebs-Ringer bicarbonate buffer containing 0.4 g of albumin, 10 mg of collagenase and 5 mg of glucose, and having a pH value of 7.4. It was heated at 37° C. for 50 minutes, and subjected to centrifugal separation at 300 rpm, whereby a floating fat cell layer was separated. Added into the fat cell were 10 ml. of the aforesaid buffer (pH 7.4), and the solution was carefully stirred to wash the fat cell, followed by centrifugal separation at 300 rpm for 30 seconds. This procedure was repeated twice, whereby the fat cells were washed perfectly, and these fat cells were used for the tests.
^14 C-glucose having its carbon atoms marked with radioactivity was reacted upon fat cells, and a Geiger count was read to determine the amount of the glucose participating in the fat synthesis and incorporated into the fat cells as a neutral fat, whereby gynosaponins were tested for their effects on the power of the glucose for fat synthesis.
More specifically, the fat cells obtained by treating with collagenase were suspended in KRB, and 0.35 ml. of the resulting solution containing 100 mg of fat cells was placed into a test tube with 0.1 ml. of each saponin solution containing 20 μg of saponin, 0.5 ml. of a 5% albumin solution in KRB, containing 10 mM glucose and having a pH value of 7.4, and 0.05 ml. of a ^14 C-glucose solution which was a 0.5 μCi KRP solution having a pH value of 7.4 and containing 10 mM glucose. They were heated at 37° C. for half an hour, and after 5 ml. of Dole's extract were added and the whole was shaked for five minutes, 3 ml. of heptane and 2 ml. of water were added, and the whole was shaked for five minutes. 3 ml. of a heptane layer were separated, and after an alkaline ethanol solution (0.5 N sodium hydroxide solution, 50 % ethanol solution) was added in the amount of 3 ml., the whole was shaked for five minutes. Then, 1 ml. of an ethanol layer was separated, and 10 ml. of a toluene scintillation solution were added thereinto, followed by determination according to the method of Skipski et al. [Biochem. Biophys. Acta, 106, 386 (1965)].

fat cells [2] = assay: Decomposition of the fat in the fat cell by ACTH; settings: ACTH 1 μg/ml + saponin 20 μg/ml, 37° C., two hours; for inhibition at 20 µg/mL: Rattus norvegicus, 2 h, read-out: Rate of inhibition
Procedure: as §1
The fat cells obtained by treating with collagenase were suspended in Krebs-Ringer bicarbonate buffer (KRB) having a pH value of 7.4. Placed into a test tube were 0.3 ml. of the solution thus obtained (containing 100 mg of fat cells), 0.1 ml. of ACTH solution containing 1 μg of ACTH, 0.1 ml. of each saponin solution containing 500 μg of saponin, and 0.3 ml. of a 5% alubumin solution in KRB, and having a pH value adjusted to 7.4. They were heated at 37° C. for two hours, and the amount of the resulting free fatty acid was determined in accordance with the Dole's method [V. P. Dole, J. Biol. Chem., 35, 150 (1958)].
Namely, 3 ml. of Dole's extract were separated into the reaction system, and 1 ml. of a thymol blue solution was added thereinto. Nitrogen was blown into the resulting solution, and the solution was titrated with a 0.008 N aqueous solution of sodium hydroxide, while it was being stirred. The amount of the resulting free fatty acid was determined in accordance with a calibration curve.
The rate of inhibition against fat decomposition was obtained in accordance with the following equation: [formula] wherein A stands for the amount of the free fatty acid formed by addition of ACTH along in the amount of 1 μg/ml.; and B stands for the amount of the free fatty acid formed by addition of ACTH and saponin in the amount of 1 μg/ml. and 20 μg/ml., respectively.

fat cells [3] = assay: Decomposition by adrenalin of the fat in the fat cells; settings: adrenalin 1 μg/ml + saponin 20 μg/ml, 37° C., two hours; for inhibition at 20 µg/mL: Rattus norvegicus, 2 h, read-out: Rate of inhibition
Procedure: A small section was prepared from 4 g of the fat tissue, and placed in 10 ml. of Krebs-Ringer bicarbonate buffer containing 0.4 g of albumin, 10 mg of collagenase and 5 mg of glucose, and having a pH value of 7.4. […] Added into the fat cell were 10 ml. of the aforesaid buffer (pH 7.4), and the solution was carefully stirred to wash the fat cell, followed by centrifugal separation at 300 rpm for 30 seconds. This procedure was repeated twice, whereby the fat cells were washed perfectly, and these fat cells were used for the tests.
The fat cells obtained by treating with collagenase were suspended in Krebs-Ringer phosphate buffer (KRP) having a pH value of 7.4. Placed into a test tube were 0.3 ml. of the solution thus obtained, and containing 100 mg of fat cells, 0.1 ml. of an adrenalin solution containing 1 μg of adrenalin, 0.1 ml. of a saponin solution containing 20 μg of saponin, and 0.5 ml. of a 5% albumin solution in KRP, and having a pH value adjusted to 7.4. […] More specifically, 3 ml. of Dole's extract were placed in the reaction system, and after they were shaked for five minutes, 3 ml. of heptane were dispensed, and 1 ml. of a thymol blue solution was added thereinto. The resulting solution was titrated with a 0.008 N aqueous solution of sodium hydroxide, while it was being stirred with nitrogen, and the amount of the resulting free fatty acid was determined in accordance with a calibration curve.
The rate of inhibition was obtained in accordance with the equation shown at (1) above.

Compound: CC(=CCCC(C)(OC1OC(COC2OC(C)C(O)C(O)C2O)C(O)C(O)C1O)C1CCC2(C)C1C(O)CC1C3(C)CCC(OC4OC(CO)C(O)C(O)C4OC4OC(CO)C(O)C(O)C4O)C(C)(C)C3CCC12C)CO [gynosaponin P, 20S,26-Hydroxyprotopanaxadiol-3-O-[β-D-glucopyranosyl (1→2)-β-D-glucopyranoside]-20-O-[α-L-rhamnopyranosyl (1→6)-β-D-glucopyranoside]]
- Power for synthesis of neutral fat from glucose (fat cells [1]): 8,165 cpm/g
- activation at 20 µg/mL (fat cells [1]): 38%
- Free fatty acid formed by decomposition of fat (fat cells [2]): 6.6 μ Eq/g
- inhibition at 20 µg/mL (fat cells [2]): 21%
- inhibition at 20 µg/mL (fat cells [3]): 10%
- Free fatty acid formed by decomposition of fat (fat cells [3]): 12.7 μ Eq/g

Compound: CC(C)=CCC[C@](C)(O[C@@H]1O[C@H](CO[C@@H]2O[C@@H](C)[C@H](O)[C@@H](O)[C@H]2O)[C@@H](O)[C@H](O)[C@H]1O)[C@H]1CC[C@]2(C)[C@@H]1[C@H](O)C[C@@H]1[C@@]3(C)CC[C@H](O[C@@H]4O[C@H](CO[C@@H]5O[C@@H](C)[C@H](O)[C@@H](O)[C@H]5O)[C@@H](O)[C@H](O)[C@H]4O)C(C)(C)[C@@H]3CC[C@]12C [gynosaponin G, 20S-Protopanaxadiol-3,20-bis-O-[α-L-rhamnopyranosyl (1→6)-β-D-glucopyranoside]]
- Power for synthesis of neutral fat from glucose (fat cells [1]): 8,925 cpm/g
- activation at 20 µg/mL (fat cells [1]): 42%
- Free fatty acid formed by decomposition of fat (fat cells [2]): 5.8 μ Eq/g
- inhibition at 20 µg/mL (fat cells [2]): 31%
- inhibition at 20 µg/mL (fat cells [3]): 2%
- Free fatty acid formed by decomposition of fat (fat cells [3]): 13.8 μ Eq/g

Compound: CC(=CCC[C@](C)(O[C@@H]1O[C@H](CO[C@@H]2OC[C@@H](O)[C@H](O)[C@H]2O)[C@@H](O)[C@H](O)[C@H]1O)[C@H]1CC[C@]2(C)[C@@H]1[C@H](O)C[C@@H]1[C@@]3(C)CC[C@H](O)C(C)(C)[C@@H]3CC[C@]12C)CO [gynosaponin U, 20S,26-Hydroxyprotopanaxadiol-20-O-[β-D-xylopyranosyl (1→6)-β-D-glucopyranoside]]
- Power for synthesis of neutral fat from glucose (fat cells [1]): 13,100 cpm/g
- activation at 20 µg/mL (fat cells [1]): 61%
- Free fatty acid formed by decomposition of fat (fat cells [2]): 5.6 μ Eq/g
- inhibition at 20 µg/mL (fat cells [2]): 33%
- inhibition at 20 µg/mL (fat cells [3]): 2%
- Free fatty acid formed by decomposition of fat (fat cells [3]): 13.8 μ Eq/g

Compound: 20S-Protopanaxadiol-3-O-{[β-D-glucopyranosyl (1→2)-α-L-rhamnopyranosyl (1→6)]-β-D-glucopyranoside}-20-O-[α-L-rhamnopyranosyl (1→6)-β-D-glucopyranoside] [gynosaponin B]
- Power for synthesis of neutral fat from glucose (fat cells [1]): 12,308 cpm/g
- Rate of promotion (fat cells [1]): 57%
- Free fatty acid formed by decomposition of fat (fat cells [2]): 6.9 μ Eq/g
- Rate of inhibition (fat cells [2]): 18%
- Free fatty acid formed by decomposition of fat (fat cells [3]): 9.1 μ Eq/g
- Rate of inhibition (fat cells [3]): 35%

Compound: CC(=CCC[C@](C)(O[C@@H]1O[C@H](CO)[C@@H](O)[C@H](O)[C@H]1O)[C@H]1CC[C@]2(C)[C@@H]1[C@H](O)C[C@@H]1[C@@]3(C)CC[C@H](O)C(C)(C)[C@@H]3CC[C@]12C)CO [progynosapogenin O1, 20S,26-Hydroxyprotopanaxadiol-20-O-β-D-glucopyranoside]
- Power for synthesis of neutral fat from glucose (fat cells [1]): 11,200 cpm/g
- activation at 20 µg/mL (fat cells [1]): 52%
- Free fatty acid formed by decomposition of fat (fat cells [2]): 5.9 μ Eq/g
- inhibition at 20 µg/mL (fat cells [2]): 30%
- inhibition at 20 µg/mL (fat cells [3]): 11%
- Free fatty acid formed by decomposition of fat (fat cells [3]): 12.6 μ Eq/g

Compound: 20S-Protopanaxadiol-3-O-{[β-D-glucopyranosyl (1→2)-α-L-rhamnopyranosyl (1→6)]-β-D-glucopyranoside} [progynosapogenin A--AH]
- Power for synthesis of neutral fat from glucose (fat cells [1]): 10,550 cpm/g
- Rate of promotion (fat cells [1]): 49%
- Free fatty acid formed by decomposition of fat (fat cells [2]): 6.3 μ Eq/g
- Rate of inhibition (fat cells [2]): 25%
- Free fatty acid formed by decomposition of fat (fat cells [3]): 12.4 μ Eq/g
- Rate of inhibition (fat cells [3]): 12%

Compound: CC(C)=CCC[C@](C)(O[C@@H]1O[C@H](CO[C@@H]2O[C@@H](C)[C@H](O)[C@@H](O)[C@H]2O)[C@@H](O)[C@H](O)[C@H]1O)[C@H]1CC[C@]2(C)[C@@H]1[C@H](O)C[C@@H]1[C@@]3(C)CC[C@H](O[C@@H]4O[C@H](CO)[C@@H](O)[C@H](O)[C@H]4O[C@@H]4O[C@H](CO)[C@@H](O)[C@H](O)[C@H]4O)C(C)(C)[C@@H]3CC[C@]12C [gynosaponin E, 20S-Protopanaxadiol-3-O-[β-D-glucopyranosyl (1→2)-β-D-glucopyranoside]-20-O-[α-L-rhamnopyranosyl (1→6)-β-D-glucopyranoside]]
- Power for synthesis of neutral fat from glucose (fat cells [1]): 10,248 cpm/g
- activation at 20 µg/mL (fat cells [1]): 48%
- Free fatty acid formed by decomposition of fat (fat cells [2]): 5.9 μ Eq/g
- inhibition at 20 µg/mL (fat cells [2]): 30%
- inhibition at 20 µg/mL (fat cells [3]): 33%
- Free fatty acid formed by decomposition of fat (fat cells [3]): 9.4 μ Eq/g

Compound: CC(C)=CCC[C@](C)(O[C@@H]1O[C@H](CO[C@@H]2OC[C@@H](O)[C@H](O)[C@H]2O)[C@@H](O)[C@H](O)[C@H]1O)[C@H]1CC[C@]2(C)[C@@H]1[C@H](O)C[C@@H]1[C@@]3(C)CC[C@H](O[C@@H]4O[C@H](CO)[C@@H](O)[C@H](O)[C@H]4O[C@@H]4OC[C@@H](O)[C@H](O)[C@H]4O)C(C)(C)[C@@H]3CC[C@]12C [gynosaponin Q, 20S-Protopanaxadiol-3-O-[β-D-xylopyranosyl (1→2)-β-D-glucopyranoside]-20-O-[β-D-xylopyranosyl (1→6)-β-D-glucopyranoside]]
- Power for synthesis of neutral fat from glucose (fat cells [1]): 11,620 cpm/g
- activation at 20 µg/mL (fat cells [1]): 54%
- Free fatty acid formed by decomposition of fat (fat cells [2]): 5.8 μ Eq/g
- inhibition at 20 µg/mL (fat cells [2]): 31%
- inhibition at 20 µg/mL (fat cells [3]): 4%
- Free fatty acid formed by decomposition of fat (fat cells [3]): 13.5 μ Eq/g

Compound: 20S,26-Hydroxyprotopanaxadiol-3-O-{[β-D-glucopyranosyl (1→2)-α-L-rhamnopyranosyl (1→6)]-β-D-glucopyranoside}-20-O-[α-L-rhamnopyranosyl (1→6)-β-D-glucopyranoside] [gynosaponin O]
- Power for synthesis of neutral fat from glucose (fat cells [1]): 8,263 cpm/g
- Rate of promotion (fat cells [1]): 38%
- Free fatty acid formed by decomposition of fat (fat cells [2]): 5.6 μ Eq/g
- Rate of inhibition (fat cells [2]): 33%
- Free fatty acid formed by decomposition of fat (fat cells [3]): 13.9 μ Eq/g
- Rate of inhibition (fat cells [3]): 1%
